Assays:
[1] = biological target: T1, human thrombin (Homo sapiens, UniProt P00734); assay: Thrombin-induced fibrinogen polymerization; format: biochemical; set-up: Thrombin, also known as an active plasma coagulation factor II; purchased Sigma-Aldrich Chemical Co. (St. Louis, MO, USA) T7009; settings: thrombin preincubated with compound
Protocol: In these preparations, to nine volumes of thrombin one volume of polyphenolic compounds was added (final thrombin concentration was 15.8 nM). All tested compounds were dissolved in 50 % DMSO to the initial concentration of 10 mM; other solutions of compounds were also prepared in 50 % DMSO (prepared in 50 mM TBS, pH 7.4). […] Polymerization of fibrin was monitored at 595 nm using a 96-well microtiter plate reader. To each reaction well of the microtiter plate, 100 μl of fibrinogen (3 mg/ml) in 50 mM TBS and 5 mM CaCl2, pH 7.4, were added. […] The maximal velocity of the polymerization process (V max, Δm OD/min) for each absorbance curve was determined (Nowak et al., [2007]).

[2] = biological target: T1, human thrombin; assay: Analysis of thrombin inhibition parameters (Lineweaver–Burk curves); format: biochemical; set-up: Thrombin, also known as an active plasma coagulation factor II; purchased Sigma-Aldrich Chemical Co. (St. Louis, MO, USA) T7009
Protocol: Absorbance was monitored every 12 s for 10 min in a 96-well microplate reader. The velocity of reaction was expressed as the increase in product (pNA) over time (∆ μmol/min) using a computer program Mikcroplate Manager® 8 and the extinction coefficient of p-nitroaniline. […] Then, the Lineweaver–Burk ([1934]) curves for thrombin in the presence and in the absence of polyphenol compounds were plotted. The Lineweaver–Burk equation, which is a transformation of the Michaelis–Menten model, looks as follows: 1/V=Km/Vmax·1/[S]+1/Vmax

Compound: O=c1c(O)c(-c2ccc(O)c(O)c2)oc2cc(O)cc(O)c12 [Quercetin, quercetin]
- Effect on thrombin ability to induce fibrinogen polymerization ([1]; 10 min 37 °C): inhibition of thrombin ability to induce fibrinogen polymerization
- Concentration causing total inhibition of thrombin activity (fibrin polymerization) ([1]; Vmax of fibrinogen polymerization at 595 nm): 50 µM
- k cat ([2]; compound at IC50 concentration, k cat = V max/E 0, control 29.1): 27.8 s⁻¹
- Type of inhibition ([2]; from Lineweaver–Burk curves): competitive inhibitors
- V max of chromogenic substrate hydrolysis by thrombin ([2]; thrombin incubated with compound at IC50 concentration, control 30.7): 29.4 10^−6 mol/min
- K m of chromogenic substrate hydrolysis by thrombin ([2]; thrombin incubated with compound at IC50 concentration, control 158.7): 633.8 10^−6 M

— publication PMC3939009, “Thrombin inhibitory activity of some polyphenolic compounds” (Medicinal Chemistry Research, 2013)
